Literature values in patent US20190076366A1, “PHARMACEUTICAL COMPOSITION OF ENTECAVIR AND PROCESS OF MANUFACTURING” (Pharmascience, Inc., priority 2012, published 2019).

Assays:
[1] = 25°±0.5° C.

C=C1C(n2cnc3c(=O)[nH]c(N)nc32)C[C@H](O)[C@H]1CO (stereo partly drawn) [Entecavir, 2-amino-l,9-dihydro-9-[(1S,3R,4S)-4-hydroxy-3-(hydroxymethyl)-2-methylenecyclopentyl]-6H-purin-6-one, monohydrate]
pH of the saturated solution in water [1]: 7.9 | water solubility (in water): 2400 µg/mL | solubility in purified water (purified water): 2400 µg/mL
